According to patent publication US5378718A, “1,4-dihydropyridine derivatives” (Cedona Pharmaceuticals B.V., priority 1990, dated 1995):

Test system: arterial blood pressure
Test: Anesthetized rabbit experiments, lowering of arterial blood pressure
Format: in vivo, New Zealand white rabbits
Set-up: key: Inactive: No decrease or decrease less than 5%; Active: Decrease between 5 and 40%; Very Active: Decrease greater than 40%
Details: end of 10 min i.v. infusion at highest dose tested (150-200 μg×kg^-1×min^-1), decrease as percentage of basal value
Procedure: […]
Animals Anesthesia and Surgical Procedures
New Zealand white rabbits (2.5-3 kg) were anesthetized (30 mg×kg^-1 pentobarbitone, i.v., supplemetal doses as needed). Tracheotomy was performed, and an intra-tracheal cannula was inserted. No artificial ventilation was applied and body temperature was maintained at 37°-38° C.
Left ventricular pressure (LVP) was measured (millar Mikro-Tip catheter via the right carotid artery with transducer in the left ventricle). The LVP signal was differentiated electronically to obtain the rate of change of LVP (LV dP/dt). The heart rate (HR) was derived from the LVP pulse signal. The jugular vein was cannulated for infusion of the test compounds. Aortic blood pressure (SAP and DAP) was monitored (Gould-Statham pressure transducer) by inserting a polyethylene catheter filled with heparin (50 IU×ml^-1) through the femoral artery into the abdominal aorta. Heparin (150 IU×kg^-1, i.v.) was administered to prevent blood clotting.
After completion of surgical procedures, the rabbits were allowed to recover for 15 minutes before drug administration was started.
Infusion of Test Compounds and Test Protocol
Drugs were infused at constant rate (0.5 ml×min^-1) for 10 minutes at various doses, resulting in a typical dose range of 2.0, 20.0 and 200 μg×kg^-1 ×min^-1 (2.5 kg rabbit).
Due to poor solubility, 1 mg×ml^-1 solutions of all the compounds tested were prepared in Intralipid^(R) 10%, containing 10% (v/v) dimethyl sulfoxide (DMSO). […] At the infusion of lower doses, the 1 mg×ml^-1 stock solutions were diluted with Intralipid^(R) 10%.
The presented data are based on the effects obtained at the end of the 10 min infusion period at the highest dose tested (150-200 μg×kg^-1 'min^-1).
The indicated ratings are referring to the effects (decrease, defined as percentage of basal value before infusion of the drug) on arterial blood pressure as follows: […]

“2,6-Dimethyl-3-methyloxycarbonyl-5-methyloxycarbonyl-4-[2-(nitroxyhexyloxyphenyl)]-1,4-dihydropyridine [Example XXXI]” was tested, and the “Activity with regard to the lowering of blood pressure” value (from here on “Activity with regard to the lowering”) was “Active”.
For `CCOC(=O)C1=C(C)NC(C)=C(C(=O)OCC)C1c1ccc(OC(=O)CCCO[N+](=O)[O-])cc1` [Example I, 3,5-Diethoxycarbonyl-2,6-dimethyl-4-[4-(3-nitroxypropyl)carbonyloxy]phenyl-1,4-dihydropyridine], the “Activity with regard to the lowering” value was “Active”.
For `COC(=O)C1=C(C)NC(C)=C(C(=O)OC)C1c1cccc(OC)c1OCCO[N+](=O)[O-]` [Example XVII, 3,5-Dimethoxycarbonyl-2,6-dimethyl-4-[3-methoxy-2-(2-nitroxyethoxy)phenyl]-1,4-dihydropyridine×H2 O], the “Activity with regard to the lowering” value was “Active”.
`CCOc1cccc(C2C(C(=O)OC)=C(C)NC(C)=C2C(=O)OC)c1OCCO[N+](=O)[O-]` [Example XVIII, 3,5-Dimethoxycarbonyl-2,6-dimethyl-4-[3-ethoxy-2-(2-nitroxyethoxy)phenyl]-1,4-dihydropyridine×H2 O] was tested, and the “Activity with regard to the lowering” value was “Active”.
With `COC(=O)C1=C(C)NC(C)=C(C(=O)OC)C1c1cc(Cl)ccc1OCCO[N+](=O)[O-]` [Example XV] the “Activity with regard to the lowering” value was “Active”.
For `CCOC(=O)C1=C(C)NC(C)=C(C(=O)OCC)C1c1ccccc1OCCOCCOCCO[N+](=O)[O-]` [Example XX, 3,5-Diethoxycarbonyl-2,6-dimethyl-4-(2-{2-[2-(2-nitroxy-ethoxy)ethoxy]ethoxy}-phenyl)-1,4-dihydropyridine], the “Activity with regard to the lowering” value was “Active”.
With `COC(=O)C1=C(C)NC(C)=C(C(=O)OC)C1c1cc(Br)ccc1OCCO[N+](=O)[O-]` [XIX, 4-[5-Bromo-2-(2-nitroxyethoxy)phenyl]-3,5-dimethoxy-carbonyl-2,6-dimethyl-1,4-dihydropyridine] the “Activity with regard to the lowering” value was “Active”.

Test system: contracted rat aorta
Test: In vitro rat aorta assay, relaxation of KCl-contracted aorta strips
Format: cell-based
Details: rat thoracic aorta strips contracted with 50 mM KCl, 1.25 mM CaCl2; concentration at which residual contraction is 50% of maximum
Procedure: Strips of thoracial rat aortae (without aortic arch, helically cut; length 1-1.5 cm; width about 2 mm) were place in an organ bath [20 ml; Krebs Ringer medium bubbled with O2 /CO2 (95/5%) at 37` C.]. A resting tension of 0.5 g was applied and the preparations were equilibrated during 100 min (fresh buffer solution every 20 min). The strips were isotonically contracted with 50 mM KCl (equimolar part of NaCl in buffer omitted) in the presence of 1.25 mM CaCl2.
Drug-induced relaxation was tested at increasing concentration (half log steps), till maximal or full relaxation (corresponding to basal precontraction value of organ length) had been reached.
Responses were calculated as change in organ length relatively to maximal displacement by contraction, EC50 values corresponding to the drug concentration at which residual contraction is 50% of maximum.

In order of falling EC50:
1. COC(=O)C1=C(C)NC(C)=C(C(=O)OC)C1c1cccc(OC)c1OCCO[N+](=O)[O-] [Example XVII, 3,5-Dimethoxycarbonyl-2,6-dimethyl-4-[3-methoxy-2-(2-nitroxyethoxy)phenyl]-1,4-dihydropyridine×H2 O]  88 nM
2. COC(=O)C1=C(C)NC(C)=C(C(=O)OC)C1c1cc(Cl)ccc1OCCO[N+](=O)[O-] [Example XV]  85 nM
3. COC(=O)C1=C(C)NC(C)=C(C(=O)OC)C1c1cc([N+](=O)[O-])ccc1OCCO[N+](=O)[O-] [Example XIV, 3,5-Dimethoxycarbonyl-2,6-dimethyl-4-[2-(2-nitroxy-ethoxy)-5-nitrophenyl]-1,4-dihydropyridine]  80 nM
4. COC(=O)C1=C(C)NC(C)=C(C(=O)OC)C1c1cc(Br)ccc1OCCO[N+](=O)[O-] [XIX, 4-[5-Bromo-2-(2-nitroxyethoxy)phenyl]-3,5-dimethoxy-carbonyl-2,6-dimethyl-1,4-dihydropyridine]  80 nM
5. COC(=O)C1=C(C)NC(C)=C(C(=O)OC)C1c1ccccc1OC[C@@H](C)CO[N+](=O)[O-] [Example XXXVIII]  75 nM
6. COC(=O)C1=C(C)NC(C)=C(C(=O)OC)C1c1ccccc1OC1CCCCC1O[N+](=O)[O-] (stereo not shown) [Example XXXVII, 3,5-Dimethoxycarbonyl-2,6-dimethyl-4-[2-(2-nitroxycyclohexoxy)phenyl]-1,4-dihydropyridine×methanol]  68 nM
7. CCOC(=O)C1=C(C)NC(C)=C(C(=O)OCC)C1c1ccccc1OCCCCCCCCCCO[N+](=O)[O-] [Example XXV, 3,5-Diethoxycarbonyl-2,6-dimethyl-4-[2-(10-nitroxy-decyloxy)phenyl]-1,4-dihydropyridine]  67 nM
8. CCOC(=O)C1=C(C)NC(C)=C(C(=O)OCC)C1c1ccccc1OCC(C)(C)CO[N+](=O)[O-] [Example XXII, 3,5-Diethoxycarbonyl-2,6-dimethyl-4-[2-(2,2-dimethyl-3-nitroxypropoxy)-phenyl]-1,4-dihydropyridine]  60 nM
9. COC(=O)C1=C(C)NC(C)=C(C(=O)OC)C1c1ccccc1OCCO[N+](=O)[O-] [Example VII, 3,5-Dimethoxycarbonyl-2,6-dimethyl-4-[2-(2-nitroxy-ethoxy)phenyl]-1,4-dihydropyridine]  59 nM
10. CCOC(=O)C1=C(C)NC(C)=C(C(=O)OCC)C1c1ccccc1OCCOCCOCCO[N+](=O)[O-] [Example XX, 3,5-Diethoxycarbonyl-2,6-dimethyl-4-(2-{2-[2-(2-nitroxy-ethoxy)ethoxy]ethoxy}-phenyl)-1,4-dihydropyridine]  38 nM
11. CCOC(=O)C1=C(C)NC(C)=C(C(=O)OC)C1c1ccccc1OCC(C)(C)CO[N+](=O)[O-] (stereo not shown) [Example XXIII, 2,6-Dimethyl-4-[2-(2,2-dimethyl-3-nitroxypropoxy)-phenyl]-3-ethoxycarbonyl-5-methoxycarbonyl-1,4-dihydro-pyridine×H2 O]  28 nM
12. COC(=O)C1=C(C)NC(C)=C(C(=O)OC)C1c1ccccc1OCC(C)O[N+](=O)[O-] (stereo not shown) [Example XXXIII, 3,5-Dimethoxycarbonyl-2,6-dimethyl-4-{2-[2-nitroxypropyloxy)phenyl}-1,4-dihydropyridine]  16 nM
13. CCOC(=O)C1=C(C)NC(C)=C(C(=O)OCC)C1c1ccccc1OCCO[N+](=O)[O-] [Example XXI, 3,5-Diethoxycarbonyl-2,6-dimethyl-4-[2-(2-nitroxy-ethoxy)phenyl]-1,4-dihydropyridine]  14 nM
14. CCOC(=O)C1=C(C)NC(C)=C(C(=O)OC)C1c1ccccc1OCCCO[N+](=O)[O-] (stereo not shown) [Example XXVI, 2,6-Dimethyl-3-ethoxycarbonyl-5-methoxycarbonyl-4-[2-(3-nitroxypropoxy)phenyl]-1,4-dihydropyridine]  12 nM
15. COC(=O)C1=C(C)NC(C)=C(C(=O)OC)C1c1ccccc1OCCCCCCO[N+](=O)[O-] [Example XXX, 3,5-Dimethoxycarbonyl-2,6-dimethyl-4-[2-(6-nitroxyhexyloxy)phenyl]-1,4-dihydropyridine]  9 nM
16. CCOC(=O)C1=C(C)NC(C)=C(C(=O)OCC)C1c1ccccc1OC[C@H]1CC[C@H](CO[N+](=O)[O-])CC1 [Example XXIV, 3,5-Diethoxycarbonyl-2,6-dimethyl-4-[2-[(4-nitroxymethyl-(trans)-cyclohexyl)methoxy]phenyl]-1,4-dihydropyridine]  7.8 nM
17. CCOC(=O)C1=C(C)NC(C)=C(C(=O)OCC)C1c1ccccc1OCCCO[N+](=O)[O-] [Example XXVIII]  7.7 nM
18. COC(=O)C1=C(C)NC(C)=C(C(=O)OC)C1c1ccccc1OC[C@H]1CC[C@H](CO[N+](=O)[O-])CC1 [Example XXXII, 3,5-Dimethoxycarbonyl-2,6-dimethyl-4-{2-[4-nitroxymethyl(trans)cyclohexylmethoxy]phenyl}-1,4-dihydropyridine]  6.5 nM
19. COC(=O)C1=C(C)NC(C)=C(C(=O)OC)C1c1ccccc1OCCCO[N+](=O)[O-] [Example XXVII, 3,5-Dimethoxycarbonyl-2,6-dimethyl-4-[2-(3-nitroxypropoxy)phenyl]-1,4-dihydropyridine]  5.7 nM
20. COC(=O)C1=C(C)NC(C)=C(C(=O)OC)C1c1ccccc1OCCCCCCCCO[N+](=O)[O-] [Example XXXV, 2,6-Dimethyl-3,5-dimethoxycarbonyl-4-[2-(8-nitroxyoctyloxy)phenyl]-1,4-dihydropyridine]  5 nM
21. CCOC(=O)C1=C(C)NC(C)=C(C(=O)OC)C1c1ccccc1OCCCCO[N+](=O)[O-] (stereo not shown) [Example XXIX, 2,6-Dimethyl-3-ethoxycarbonyl-5-methoxycarbonyl-4-[2-(4-nitroxybutoxy)phenyl]-1,4-dihydropyridine×2H2 O]  2.6 nM
